For data set [1], the system named is H9C2 cells. In words: Fluorescence activated cell sorting of H9C2 cells after 30 min incubation with 10 uM peptide (median Cy5.5). Format: cell-based, rat. To be noted: for Corrected Median Cy5.5 / Raw Median Cy5.5: H9C2 cells, 30 min incubation, 10 uM peptide, single replicates; for Corrected Median Cy5.5: corrected for peptide fluorescence; for Average Correction: average of corrected median Cy5.5, H9C2 cells, FIG. 1C. On the procedure:
(§1) Variants of SEQ ID NO: 1 in which every amino acid was systematically mutated to alanine were synthesized in the University of Pittsburgh Peptide Synthesis Facility. Each variant was conjugated to the Cyanine5.5 fluorescent dye (Cy5.5). The rat cardiomyocyte cell line H9C2 (ATCC, catalogue #: CRL-1446) was incubated for 30 minutes at 37° C. with Dimethyl sulfoxide (DMSO) as a control, or the alanine peptide variants. Cells were then washed 3 times with PBS, trypsinized and resuspended, stained for live/dead cells, and then FACS sorted for Cy5.5 positive cells.

The test system of the next data set is myocardial tissue. The experiment in a line: Fluorescence intensity in myocardial tissue 15 minutes after injection of fluorescently-labeled CTP variants. Format: in vivo. To be noted: mice; for fluorescence intensity in myocardial tissue compared to CTP: FIG. 6B. The method, then: Additionally, fluorescently-labeled CTP variants (CTP, CTP-B, H4A, P2A) or fluorescently-labeled random peptide sequence (RAN) were injected into mice and fluorescence intensity was measured in fixed myocardial tissue. Mice were injected with peptides, and, 15 minutes after injection, heart tissue was dissected, cryosectioned, stained, and analyzed for fluorescence intensity.

Data set [2] relates to H9C2 cells. In words: Alanine scan: percentage of Cy5.5 positive H9C2 cells by FACS. Format: cell-based, rat. The note with it: percentage of Cy5.5 positive H9C2 cells normalized to non-mutated peptide (SEQ ID NO: 1); Cy5.5-conjugated peptides, 30 minutes at 37° C. On the procedure:
as §1
The percentage of Cy5.5 positive H9C2 cells, normalized to the non-mutated peptide (SEQ ID NO: 1), for each peptide variant is summarized in Table 2 below.

The subject of data set [3] is H9C2 cells, MEF cells, 3T3 cells. In words: Transduction of cell lines by Cy5.5 labeled N- and C-terminal CTP variants (FACS). It counts as cell-based. The note with it: across all three cell lines; FIGS. 2A-2D. The method, then:
(§2) FIGS. 2A-2E are a series of bar graphs that show the transduction efficiencies and viability of various cell types incubated with Cy5.5 labeled cardiac-specific targeting peptide variants. […] CTP (Full Length): NH2-APWHLSSQYSRT-COOH (SEQ ID NO: 1); CTP-A: NH2-APWHLS-COOH (SEQ ID NO: 24); CTP-B: NH2-SQYSRT-COOH (CTP6aa; SEQ ID NO: 5); cyclic: cyclized version of the indicated peptide; CTP-Random: random, linear, 12-amino acid peptide (RAN: NH2-STLMKFCYVEQN-COOH ((SEQ ID NO: 26)); DMSO: Dimethyl sulfoxide.
(§3) Solid-phase peptide synthesis were used to synthesize the full-length form (NH2-APWHLSSQYSRT-COOH (SEQ ID NO: 1)), as well as an N-terminus 6 amino acid called CTP-A (NH2-APWHLS-COOH (SEQ ID NO: 24)), or as CTP6aa (NH2-SQYSRT-COOH (SEQ ID NO: 5)) peptides. Full length and CTP6aa were also synthesized in a cyclic forms. A random, linear, 12-amino acid long peptide (RAN: NH2-STLMKFCYVEQN-COOH (SEQ ID NO: 26)) was also synthesized to serve as control. All peptides were fluorescently labeled with Cyanine5.5 (Cy5.5). Isolated, beating neonatal mouse cardiomyocytes (CMC) were incubated with 10 μM of the peptides at 37° C. for 30 minutes, washed extensively with PBS and confocal microscopy performed. […]

The next data set relates to H9C2 cells and MEFs. It counts as cell-based. To be noted: compared to full-length peptide and DMSO control; FIG. 2E. The method, then:
as §2, §3

Where no end group is shown, it is not given here.

Consider “AAWHLSSQYSRT (also: Cy5.5 conjugate, site not given here) [P2A, alanine variant of CTP, Cy5.5 conjugated]”, for which the “Corrected Median Cy5.5” value was 9901.8 in the data set with H9C2 cells [1] (listed as P2A_001), 9298.9 with H9C2 cells [1] (listed as P2A_002) and 9488.4 in the data set on H9C2 cells [1] (listed as P2A_003). The “Raw Median Cy5.5” value in the data set with H9C2 cells [1] (listed as P2A_001) is listed as 9449; in the data set on H9C2 cells [1] (listed as P2A_002) it was 8834; in the data set with H9C2 cells [1] (listed as P2A_003), 9014. Besides, in the data set on H9C2 cells [1], the “Average Correction” value stood at 9535.0. In the data set with myocardial tissue, the “fluorescence intensity in myocardial tissue compared to CTP” value is on record as “significantly greater”. Further, in the data set on H9C2 cells [2], the “% transduction of H9C2 Cells” value is 59.15%.

With “SQYSRT (Description of Artificial Sequence: Cardiac Targeting Peptide (CTP-B)) [linear six C-terminal amino acid cardiac-specific targeting peptide]”, the “transduction compared to the full-length peptide” value in data set [3] is on record as “at least as well as the full-length peptide”. In addition, the “Corrected Median Cy5.5” value in the data set on H9C2 cells [1] (listed as CTP-B_001) is on record as 5663.7; in the data set on H9C2 cells [1] (listed as CTP-B_002) it was 6469.2; in the data set with H9C2 cells [1] (listed as CTP-B_003), 6240.8. Further, the figures for the “Raw Median Cy5.5” value with H9C2 cells [1] (listed as CTP-B_001), in the data set on H9C2 cells [1] (listed as CTP-B_002) and in the data set with H9C2 cells [1] (listed as CTP-B_003) were 4711, 5381 and 5191, respectively. Further, in the data set with H9C2 cells [1], the “Average Correction” value is 6124.6. Also, in the data set on myocardial tissue, the “uptake compared to random peptide sequence and CTP” value is “superior uptake”. For the same substance, the “fluorescence intensity in myocardial tissue compared to CTP” value in the data set on myocardial tissue is “significantly greater”. In addition, the cell viability entry in the data set on H9C2 cells and MEFs was “did not alter cell viability”.

For the substance “APWHLSSQYART (also: Cy5.5 conjugate, site not given here) [S10A, alanine variant of CTP, Cy5.5 conjugated]”, the “Corrected Median Cy5.5” value in the data set with H9C2 cells [1] (listed as S10A_001) is 3707.6; with H9C2 cells [1] (listed as S10A_002), 3658.1; with H9C2 cells [1] (listed as S10A_003), 3959.6. The results for the “Raw Median Cy5.5” value with H9C2 cells [1] (listed as S10A_001), in the data set on H9C2 cells [1] (listed as S10A_002) and with H9C2 cells [1] (listed as S10A_003) were 1722, 1699 and 1839, respectively. Also, the “Average Correction” value in the data set with H9C2 cells [1] is recorded as 3775.1. In the data set on H9C2 cells [2], the “% transduction of H9C2 Cells” value is listed as 30.61%.

For “APWHLSSQYSRT (also: Cy5.5 label, site not given here) [CTP, 12-amino acid cardiac-specific targeting peptide, tested conjugated to Cy5.5]”, the “Corrected Median Cy5.5” value in the data set with H9C2 cells [1] (listed as CTP_001) was found to be 5652.0; in the data set with H9C2 cells [1] (listed as CTP_002) it was 6028.0; in the data set on H9C2 cells [1] (listed as CTP_003) it was 6308.0. In addition, the figures for the “Raw Median Cy5.5” value with H9C2 cells [1] (listed as CTP_001), in the data set with H9C2 cells [1] (listed as CTP_002) and in the data set on H9C2 cells [1] (listed as CTP_003) were 5652, 6028 and 6308, respectively. Moreover, in the data set with H9C2 cells [1], the “Average Correction” value amounted to 5996. For the same substance, in the data set with H9C2 cells [2], the “% transduction of H9C2 Cells” value is listed as 100%.

The values are drawn from patent US12643924B2, “Cardiac-specific targeting-peptide (CTP), compositions, and uses thereof” (University of Pittsburgh—Of the Commonwealth System of …, priority 2018, dated 2026).
